# Data published in article PMC9406419, “OATD-02 Validates the Benefits of Pharmacological Inhibition of Arginase 1 and 2 in Cancer” (Cancers, 2022).
# Test system: K562 cells
# Experiment: Long-term culture of OATD-02-treated K562 cells (viable cell count, propidium iodide)
# Type: cell-based, human
# Conditions: different concentrations, 14 days, medium not replaced
# Procedure: CT26.WT (CRL-2638, CT26, mouse colon carcinoma) and K562 (CCL-243, human CML) cell lines were purchased from the ATCC®. Adherent CT26 and non-adherent K562 cells were maintained in the RPMI-1640 medium (Gibco, Life Technologies, Carlsbad, CA, USA) supplemented with 10% foetal bovine serum (FBS, #10270106, ThermoFisher/Gibco™) and 100 U/mL penicillin G and 100 µg/mL streptomycin (Antibiotic-Antimycotic, #15240062, Gibco®) at 37 °C in a humidified 5% CO2 atmosphere. Full-grown monolayers of CT26 cells were trypsinized for 15 min (0.25% Gibco® Trypsin-EDTA), harvested, and passaged several times for expansion. Both cell lines were confirmed at the last used passage to be mycoplasma-free (Mycoalert Detection Kit, Lonza, Basel, Switzerland). The Renca (murine renal adenocarcinoma) cell line was maintained for the in vivo study conducted at Crown Biosciences (Beijing, China). A monolayer culture was grown in DMEM medium supplemented with 10% FBS at 37 °C and 5% CO2. The cells were harvested in exponential growth phase and used for inoculation. […] To assess the antiproliferative effects of OATD-02, the culture medium has not been replaced during this period and the cell density/viability (propidium iodide staining) was determined daily. […]
smiles,measurement,value
CN(C)C[C@@H]1CC[C@@H](CCB(O)O)C[C@]1(N)C(=O)O [OATD-02],survival of K562 cells in long-term culture,dying faster in a dose-dependent manner
